Laboratory results: patent publication US11629138B2, “Microbiocidal picolinamide derivatives” (Syngenta Participations AG, priority 2017, dated 2023)

Assays:
[1] = tested on: Phaeosphaeria nodorum (Setoria nodorum); experiment: Phaeosphaeria nodorum (Septoria nodorum) / wheat / leaf disc preventative (glume blotch); format: in vivo; conditions: Parastagonospora nodorum, foliar, 200 ppm in the formulation, wheat leaf segments cv. Kanzler, 5-7 days after application, vs untreated control, read-out: disease control
Method: Phaeosphaeria nodorum (Setoria nodorum)/Wheat/Leaf Disc Preventative (Glume Blotch) Wheat leaf segments cv. Kanzler are placed on agar in a multiwell plate (24-well format) and sprayed with the formulated test compound diluted in water. The leaf disks are inoculated with a spore suspension of the fungus 2 days after application. The inoculated test leaf disks are incubated at 20° C. and 75% rh under a light regime of 12 h light/12 h darkness in a climate cabinet and the activity of a compound is assessed as percent disease control compared to untreated when an appropriate level of disease damage appears in untreated check leaf disks (5-7 days after application).

[2] = tested on: Mycosphaerella arachidis (Cercospora arachidicola); experiment: Mycosphaerella arachidis (Cercospora arachidicola) / liquid culture (early leaf spot); format: cell-based; conditions: 200 ppm in the formulation, PDB broth, 24° C., photometric, 4-5 days after application, vs untreated control, read-out: disease control (inhibition of growth)
Method: Mycosphaerella arachidis (Cercospora arachidicola)/Liquid Culture (Early Leaf Soot) Conidia of the fungus from cryogenic storage are directly mixed into nutrient broth (PDB potato dextrose broth). After placing a (DMSO) solution of test compound into a microtiter plate (96-well format), the nutrient broth containing the fungal spores is added. The test plates are incubated at 24° C. and the inhibition of growth is determined photometrically 4-5 days after application.

[3] = tested on: Mycosphaerella graminicola (Septoria tritici); experiment: Mycosphaerella graminicola (Septoria tritici) / liquid culture (Septoria blotch); format: cell-based; conditions: Zymoseptoria tritici; 200 ppm in the formulation; PDB broth, 24° C., photometric, 4 to 5 days after application; vs untreated control; read-out: disease control (inhibition of growth)
Method: Mycosphaerella graminicola (Septoria tritici)/Liquid Culture (Septoria Blotch) Conidia of the fungus from cryogenic storage are directly mixed into nutrient broth (PDB potato dextrose broth). After placing a (DMSO) solution of test compound into a microtiter plate (96-well format), the nutrient broth containing the fungal spores is added. The test plates are incubated at 24° C. and the inhibition of growth is determined photometrically 4 to 5 days after application.

[4] = tested on: Monographella nivalis (Microdochium nivale); experiment: Monographella nivalis (Microdochium nivale) / liquid culture (foot rot cereals); format: cell-based; conditions: 200 ppm in the formulation, PDB broth, 24° C., photometric, 4-5 days after application, vs untreated control, read-out: disease control (inhibition of growth)
Method: Monographella nivalis (Microdochium nivale)/Liquid Culture (Foot Rot Cereals) Conidia of the fungus from cryogenic storage are directly mixed into nutrient broth (PDB potato dextrose broth). After placing a (DMSO) solution of test compound into a microtiter plate (96-well format), the nutrient broth containing the fungal spores is added. The test plates are incubated at 24° C. and the inhibition of growth is determined photometrically 4-5 days after application.

[5] = tested on: Botryotinia fuckeliana (Botrytis cinerea); experiment: Botryotinia fuckeliana (Botrytis cinerea) liquid culture (gray mould); format: cell-based; conditions: 200 ppm in the formulation, Vogels broth, 24° C., photometric, 3-4 days after application, vs untreated control, read-out: disease control (inhibition of growth)
Method: Botryotinia fuckeliana (Botrytis cinerea) Liquid Culture (Gray Mould) Conidia of the fungus from cryogenic storage are directly mixed into nutrient broth (Vogels broth). After placing a (DMSO) solution of test compound into a microtiter plate (96-well format), the nutrient broth containing the fungal spores is added. The test plates are incubated at 24° C. and the inhibition of growth is determined photometrically 3-4 days after application.

[6] = tested on: Glomerella lagenarium (Colletotrichum lagenarium); experiment: Glomerella lagenarium (Colletotrichum lagenarium) / liquid culture (anthracnose); format: cell-based; conditions: Colletotrichum orbiculare; 200 ppm in the formulation; PDB broth, 24° C., photometric, 3 to 4 days after application; vs untreated control; read-out: disease control (inhibition of growth)
Method: Glomerella lagenarium (Colletotrichum lagenarium)/Liquid Culture (Anthracnose) Conidia of the fungus from cryogenic storage are directly mixed into nutrient broth (PDB potato dextrose broth). After placing a (DMSO) solution of test compound into a microtiter plate (96-well format), the nutrient broth containing the fungal spores is added. The test plates are incubated at 24° C. and the inhibition of growth is measured photometrically 3 to 4 days after application.

[7] = tested on: Magnaporthe grisea (Pyricularia oryzae); experiment: whole plant or invertebrate; format: in vivo; conditions: foliar, read-out: disease control
[8] = tested on: Puccinia recondita f. so. tritici; experiment: Puccinia recondita f. sp. tritici / wheat / leaf disc preventative (brown rust); format: in vivo; conditions: foliar, 200 ppm in the formulation, wheat leaf segments cv. Kanzler, 7-9 days after application, vs untreated control, read-out: disease control
Method: Puccinia recondita f. so. tritici/Wheat/Leaf Disc Preventative (Brown Rust)
Wheat leaf segments cv. Kanzler are placed on agar in multiwell plates (24-well format) and sprayed with the formulated test compound diluted in water. The leaf disks are inoculated with a spore suspension of the fungus 1 day after application. The inoculated leaf segments are incubated at 19° C. and 75% rh under a light regime of 12 h light/12 h darkness in a climate cabinet and the activity of a compound is assessed as percent disease control compared to untreated when an appropriate level of disease damage appears in untreated check leaf segments (7-9 days after application).

Pythium ultimum = Pythium ultimum / liquid culture (seedling damping off); format: cell-based; conditions: Globisporangium ultimum; 200 ppm in the formulation; PDB broth, 24° C., photometric, 2-3 days after application; vs untreated control; read-out: disease control (inhibition of growth)
Method: Pythium ultimum/Liquid Culture (Seedling Damping Off) Mycelia fragments and oospores of a newly grown liquid culture of the fungus are directly mixed into nutrient broth (PDB potato dextrose broth). After placing a (DMSO) solution of test compound into a microtiter plate (96-well format), the nutrient broth containing the fungal mycelia/spore mixture is added. The test plates are incubated at 24° C. and the inhibition of growth is determined photometrically 2-3 days after application.

COc1ccnc(C(=O)N[C@@H](C)C(=O)OC(C)C(C)c2sc3ccccc3c2C)c1O (stereo partly drawn) [I.as.001, [1-methyl-2-(3-methylbenzothiophen-2-yl)propyl] (2S)-2-[(3-hydroxy-4-methoxy-pyridine-2-carbonyl)amino]propanoate]
≥ 80%: pest or weed control at 200 ppm [1] | inhibition at 200 ppm [2] | inhibition at 200 ppm [3] | inhibition at 200 ppm [4] | inhibition at 200 ppm [5] | inhibition at 200 ppm [6] | pest or weed control at 200 ppm [7] | pest or weed control at 200 ppm [8]

COc1ccnc(C(=O)N[C@@H](C)C(=O)OC(C)C(C)n2ccc3cc(Cl)ccc32)c1O (stereo partly drawn) [I.y.001, [2-(5-chloroindol-1-yl)-1-methyl-propyl] (2S)-2-[(3-hydroxy-4-methoxy-pyridine-2-carbonyl)amino]propanoate]
≥ 80%: inhibition at 200 ppm [2] | inhibition at 200 ppm [3] | inhibition at 200 ppm [4] | inhibition at 200 ppm (Pythium ultimum) | inhibition at 200 ppm [5] | inhibition at 200 ppm [6] | pest or weed control at 200 ppm [8]
